The NIST ThermoML archive (doi:10.1016/j.fluid.2018.11.011)
± gives the expanded uncertainty stated by the source.

Test: activity coefficient (dimensionless); of the first substance listed, at infinite dilution; xn = mol fraction of the nth substance listed
Conditions: 101.33 kPa, Liquid, Chromatography, x1 = 0

SMILES | activity coefficient (308 K) | activity coefficient (323 K) | activity coefficient (338 K) | activity coefficient (353 K)
C=CCCCCCC [oct-1-ene] + CCCCCCCCCC[N+](C)(C)CCCCCCCCCC.[O-][Cl+3]([O-])([O-])[O-] | 1.1 ± 0.11 | 0.999 ± 0.1 | 1.04 ± 0.11 | 0.938 ± 0.096
CCCCCCCC [octane] + CCCCCCCCCC[N+](C)(C)CCCCCCCCCC.F[B-](F)(F)F | 4.41 ± 0.46 | 3.71 ± 0.39 | 3.13 ± 0.33 | 2.89 ± 0.3
CCCCCCCC [octane] + CCCCCCCCCC[N+](C)(C)CCCCCCCCCC.[O-][Cl+3]([O-])([O-])[O-] | 3.98 ± 0.42 | 3.69 ± 0.39 | 3.42 ± 0.36 | 3.16 ± 0.33
CCCCC [pentane] + CCCCCCCCCC[N+](C)(C)CCCCCCCCCC.F[B-](F)(F)F | 1.85 ± 0.19 | 1.51 ± 0.16 | 1.24 ± 0.13 | 1.08 ± 0.11
CCCCC [pentane] + CCCCCCCCCC[N+](C)(C)CCCCCCCCCC.[O-][Cl+3]([O-])([O-])[O-] | 1.77 ± 0.18 | 1.59 ± 0.17 | 1.44 ± 0.15 | 1.28 ± 0.13
CC(C)O [propan-2-ol] + CCCCCCCCCC[N+](C)(C)CCCCCCCCCC.F[B-](F)(F)F |  | 3.47 ± 0.37 | 2.41 ± 0.25 | 1.9 ± 0.2
CC(C)O [propan-2-ol] + CCCCCCCCCC[N+](C)(C)CCCCCCCCCC.[O-][Cl+3]([O-])([O-])[O-] |  | 1.5 ± 0.16 | 1.54 ± 0.16 | 1.11 ± 0.11
C1CCOC1 [tetrahydrofuran] + CCCCCCCCCC[N+](C)(C)CCCCCCCCCC.F[B-](F)(F)F |  | 0.662 ± 0.07 | 0.619 ± 0.066 | 0.695 ± 0.073
C1CCOC1 [tetrahydrofuran] + CCCCCCCCCC[N+](C)(C)CCCCCCCCCC.[O-][Cl+3]([O-])([O-])[O-] |  | 0.478 ± 0.053 | 0.46 ± 0.052 | 0.536 ± 0.058
ClC(Cl)Cl [trichloromethane] + CCCCCCCCCC[N+](C)(C)CCCCCCCCCC.F[B-](F)(F)F |  | 0.318 ± 0.04 | 0.346 ± 0.042 | 0.399 ± 0.047
ClC(Cl)Cl [trichloromethane] + CCCCCCCCCC[N+](C)(C)CCCCCCCCCC.[O-][Cl+3]([O-])([O-])[O-] |  | 0.224 ± 0.034 | 0.29 ± 0.038 | 0.302 ± 0.039
